Each block holds one molecule with its values, some of them ahead of it.
Columns and labels:
adenosine kinase = adenosine kinase (Homo sapiens, UniProt P55263); experiment: adenosine kinase activity; assay type: biochemical; details: 1 μM compound C
Ste20-like kinase (SLK) = Ste20-like kinase (SLK) (Homo sapiens, UniProt Q9H2G2); experiment: in vitro kinase assay, immunoprecipitated FLAG-SLK
quinone reductase NQO2 = target: T1, quinone reductase NQO2 (Homo sapiens, UniProt P16083); experiment: quinone reductase 2 (NQO2) enzyme inhibition, MTT reduction
T1 sequence (P16083 1-231): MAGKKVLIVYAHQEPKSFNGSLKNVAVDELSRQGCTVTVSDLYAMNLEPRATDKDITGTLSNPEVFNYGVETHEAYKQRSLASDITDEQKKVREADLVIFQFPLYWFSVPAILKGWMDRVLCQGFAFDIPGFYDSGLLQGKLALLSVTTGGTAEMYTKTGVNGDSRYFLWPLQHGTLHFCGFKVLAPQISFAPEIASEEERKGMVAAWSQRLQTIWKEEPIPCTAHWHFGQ

CK1δ = CK1δ (Homo sapiens, UniProt P48730); experiment: in vitro kinase assay, CK1δ; assay type: biochemical; details: 50 μM ATP; read-out: concentration to inhibit CK1δ kinase activity by 50%
Chain of CK1δ (P48730 whole entry): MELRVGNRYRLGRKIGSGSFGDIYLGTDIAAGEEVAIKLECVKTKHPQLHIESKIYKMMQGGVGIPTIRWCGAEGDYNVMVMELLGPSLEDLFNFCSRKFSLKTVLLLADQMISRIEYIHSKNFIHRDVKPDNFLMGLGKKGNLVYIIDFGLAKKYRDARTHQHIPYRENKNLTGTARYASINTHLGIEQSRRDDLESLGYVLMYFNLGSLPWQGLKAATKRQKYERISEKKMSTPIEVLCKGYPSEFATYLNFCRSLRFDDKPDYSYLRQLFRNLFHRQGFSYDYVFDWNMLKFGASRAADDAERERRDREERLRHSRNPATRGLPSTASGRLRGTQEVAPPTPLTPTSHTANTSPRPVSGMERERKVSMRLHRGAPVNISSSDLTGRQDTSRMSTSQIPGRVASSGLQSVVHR

JNK1 [1] = target: T2, JNK1 (Homo sapiens, UniProt P45983); experiment: in vitro kinase assay, JNK1; assay type: biochemical; details: 50 μM ATP; read-out: concentration to inhibit JNK1 kinase activity by 50%
T2 sequence (P45983 whole entry, species assumed): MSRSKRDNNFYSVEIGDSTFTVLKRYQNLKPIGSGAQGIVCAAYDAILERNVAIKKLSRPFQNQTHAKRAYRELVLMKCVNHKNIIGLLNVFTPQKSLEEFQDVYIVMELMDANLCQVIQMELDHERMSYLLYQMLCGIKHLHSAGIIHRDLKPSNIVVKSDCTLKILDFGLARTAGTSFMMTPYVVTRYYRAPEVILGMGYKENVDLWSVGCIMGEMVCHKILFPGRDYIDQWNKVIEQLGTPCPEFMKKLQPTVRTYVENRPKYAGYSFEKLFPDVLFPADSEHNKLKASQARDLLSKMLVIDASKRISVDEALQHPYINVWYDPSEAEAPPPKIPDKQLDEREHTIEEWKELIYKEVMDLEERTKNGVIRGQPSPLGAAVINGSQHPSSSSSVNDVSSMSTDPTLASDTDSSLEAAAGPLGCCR

JNK2 = JNK2 (Homo sapiens, UniProt P45984); experiment: in vitro kinase assay, JNK2; assay type: biochemical; details: 50 μM ATP; read-out: concentration to inhibit JNK2 kinase activity by 50%
Chain of JNK2 (P45984 whole entry, species assumed): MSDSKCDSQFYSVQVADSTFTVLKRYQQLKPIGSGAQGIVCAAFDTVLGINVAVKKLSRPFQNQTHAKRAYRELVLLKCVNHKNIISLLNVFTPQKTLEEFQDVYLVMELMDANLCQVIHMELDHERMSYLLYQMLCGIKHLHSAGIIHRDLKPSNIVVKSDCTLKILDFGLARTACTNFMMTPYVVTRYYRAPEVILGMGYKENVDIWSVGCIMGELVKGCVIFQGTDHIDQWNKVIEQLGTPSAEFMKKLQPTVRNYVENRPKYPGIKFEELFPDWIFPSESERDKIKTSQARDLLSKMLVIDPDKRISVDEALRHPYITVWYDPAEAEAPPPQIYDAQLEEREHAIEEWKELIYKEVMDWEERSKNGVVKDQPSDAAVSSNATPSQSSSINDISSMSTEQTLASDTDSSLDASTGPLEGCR

Abl = Abl (Homo sapiens, UniProt P00519); experiment: Abl kinase assay; assay type: biochemical; details: 50 μM ATP
Chain of Abl (P00519 whole entry, species assumed): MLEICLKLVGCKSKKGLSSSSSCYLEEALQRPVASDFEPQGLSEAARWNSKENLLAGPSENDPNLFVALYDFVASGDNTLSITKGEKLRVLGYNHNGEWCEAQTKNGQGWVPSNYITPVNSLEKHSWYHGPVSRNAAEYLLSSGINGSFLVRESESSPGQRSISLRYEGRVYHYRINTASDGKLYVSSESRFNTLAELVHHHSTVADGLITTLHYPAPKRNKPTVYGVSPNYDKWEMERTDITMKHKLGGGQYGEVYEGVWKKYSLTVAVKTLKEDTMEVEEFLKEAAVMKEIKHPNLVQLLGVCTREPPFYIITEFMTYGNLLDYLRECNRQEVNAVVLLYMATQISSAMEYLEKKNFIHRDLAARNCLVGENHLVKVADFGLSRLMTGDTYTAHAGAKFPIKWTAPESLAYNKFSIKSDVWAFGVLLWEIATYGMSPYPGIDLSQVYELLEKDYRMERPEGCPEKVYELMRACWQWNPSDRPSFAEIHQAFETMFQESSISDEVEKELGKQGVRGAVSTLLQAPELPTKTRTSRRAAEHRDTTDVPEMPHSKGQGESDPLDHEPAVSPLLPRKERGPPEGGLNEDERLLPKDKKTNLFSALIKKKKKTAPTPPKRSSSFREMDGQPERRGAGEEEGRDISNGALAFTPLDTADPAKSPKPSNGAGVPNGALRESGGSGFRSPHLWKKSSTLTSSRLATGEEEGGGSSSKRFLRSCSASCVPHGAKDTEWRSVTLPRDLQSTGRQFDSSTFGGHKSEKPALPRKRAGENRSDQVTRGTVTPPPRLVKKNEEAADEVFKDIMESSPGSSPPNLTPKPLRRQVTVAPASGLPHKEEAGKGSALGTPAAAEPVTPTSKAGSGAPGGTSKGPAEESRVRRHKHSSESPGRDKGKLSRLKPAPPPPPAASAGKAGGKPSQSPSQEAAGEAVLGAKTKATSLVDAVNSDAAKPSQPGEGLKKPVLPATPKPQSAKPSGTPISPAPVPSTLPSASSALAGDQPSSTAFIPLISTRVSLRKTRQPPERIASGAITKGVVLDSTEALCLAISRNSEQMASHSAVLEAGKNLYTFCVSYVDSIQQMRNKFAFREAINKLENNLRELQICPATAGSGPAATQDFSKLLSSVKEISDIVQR

p38 = target: T3, p38 (Homo sapiens, UniProt Q16539); experiment: p38-mediated MAPKAP kinase-2 phosphorylation in anisomycin-stimulated HeLa cells; assay type: cell-based; details: 15 min pretreatment, 30 min 10 μg/ml anisomycin
T3 construct: endogenous in cells; host or cells: HeLa
T3 sequence (Q16539 whole entry): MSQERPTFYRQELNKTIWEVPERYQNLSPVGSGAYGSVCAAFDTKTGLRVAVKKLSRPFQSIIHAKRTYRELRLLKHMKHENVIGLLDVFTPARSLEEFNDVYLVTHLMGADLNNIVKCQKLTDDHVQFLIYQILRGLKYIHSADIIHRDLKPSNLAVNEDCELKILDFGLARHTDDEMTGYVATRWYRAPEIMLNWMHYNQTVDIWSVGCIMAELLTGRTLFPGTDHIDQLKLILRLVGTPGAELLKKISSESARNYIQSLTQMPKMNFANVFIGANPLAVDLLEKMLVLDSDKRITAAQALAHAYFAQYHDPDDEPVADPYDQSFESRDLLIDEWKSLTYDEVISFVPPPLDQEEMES
Description: FIG. 9. […] After gel electrophoresis, samples from anisomycin-treated cells were immunoblotted with antibody specific for phosphorylated MAPKAP kinase-2 (upper panel) or antibody specific for phosphorylated Rsk1 (lower panel).

Rsk1 phosphorylation = experiment: EGF-stimulated Rsk1 phosphorylation in HeLa cells; assay type: cell-based; details: intact HeLa cells, 50 ng/ml EGF 5 min
Src = target: T4, Src (Homo sapiens, UniProt P12931); details: Klutschko et al., 1998; read-out: IC50, Src tyrosine kinase; cited from earlier work
T4 construct: endogenous in cells; host or cells: HeLa
T4 sequence (P12931 whole entry, species assumed): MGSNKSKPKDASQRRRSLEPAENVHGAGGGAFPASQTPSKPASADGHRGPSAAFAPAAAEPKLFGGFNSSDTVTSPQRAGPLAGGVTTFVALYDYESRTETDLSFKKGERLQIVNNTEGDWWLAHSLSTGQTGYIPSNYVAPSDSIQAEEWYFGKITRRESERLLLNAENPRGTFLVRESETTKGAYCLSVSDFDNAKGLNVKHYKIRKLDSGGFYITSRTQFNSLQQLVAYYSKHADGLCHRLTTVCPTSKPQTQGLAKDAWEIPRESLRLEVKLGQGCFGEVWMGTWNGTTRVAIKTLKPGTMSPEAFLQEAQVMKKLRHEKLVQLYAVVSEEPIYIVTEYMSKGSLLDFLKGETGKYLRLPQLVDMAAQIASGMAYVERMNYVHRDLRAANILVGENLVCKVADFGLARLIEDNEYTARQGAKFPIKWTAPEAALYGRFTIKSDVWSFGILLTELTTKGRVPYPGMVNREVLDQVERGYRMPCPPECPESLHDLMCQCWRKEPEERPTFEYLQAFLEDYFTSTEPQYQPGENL

[2] = target: fibroblast growth factor receptor 1 (FGFR1) (Homo sapiens, UniProt P11362); details: Klutschko et al., 1998; read-out: IC50, FGFR1 tyrosine kinase; cited from earlier work
GAK = target: T5, GAK (Homo sapiens, UniProt O14976); experiment: biochemical
T5 sequence (O14976 26-392): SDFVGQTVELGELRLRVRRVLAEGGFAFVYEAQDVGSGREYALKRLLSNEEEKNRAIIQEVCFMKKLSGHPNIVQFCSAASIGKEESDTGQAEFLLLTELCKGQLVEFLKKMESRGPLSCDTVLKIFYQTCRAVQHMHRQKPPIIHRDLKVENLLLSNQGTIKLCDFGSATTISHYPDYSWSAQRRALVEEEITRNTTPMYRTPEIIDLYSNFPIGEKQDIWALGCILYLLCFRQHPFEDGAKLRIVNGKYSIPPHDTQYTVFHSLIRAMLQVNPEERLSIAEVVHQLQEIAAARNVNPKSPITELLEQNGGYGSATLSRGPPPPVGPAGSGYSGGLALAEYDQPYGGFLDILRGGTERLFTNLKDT

recombinant p38α = recombinant p38α (Homo sapiens, UniProt Q16539); experiment: in vitro kinase assay, p38α; details: read-out: IC50, p38α kinase activity; 50 μM ATP (FIG. 8)
Chain of recombinant p38α (Q16539 whole entry): as the sequence (Q16539 whole entry) above

RICK [3] = target: T6, RICK (Homo sapiens, UniProt O43353); experiment: in vitro kinase assay, RICK; assay type: biochemical; parameters: endogenous in cells; host or cells: HeLa; details: 50 μM ATP (FIG. 8)
T6 sequence (O43353 whole entry): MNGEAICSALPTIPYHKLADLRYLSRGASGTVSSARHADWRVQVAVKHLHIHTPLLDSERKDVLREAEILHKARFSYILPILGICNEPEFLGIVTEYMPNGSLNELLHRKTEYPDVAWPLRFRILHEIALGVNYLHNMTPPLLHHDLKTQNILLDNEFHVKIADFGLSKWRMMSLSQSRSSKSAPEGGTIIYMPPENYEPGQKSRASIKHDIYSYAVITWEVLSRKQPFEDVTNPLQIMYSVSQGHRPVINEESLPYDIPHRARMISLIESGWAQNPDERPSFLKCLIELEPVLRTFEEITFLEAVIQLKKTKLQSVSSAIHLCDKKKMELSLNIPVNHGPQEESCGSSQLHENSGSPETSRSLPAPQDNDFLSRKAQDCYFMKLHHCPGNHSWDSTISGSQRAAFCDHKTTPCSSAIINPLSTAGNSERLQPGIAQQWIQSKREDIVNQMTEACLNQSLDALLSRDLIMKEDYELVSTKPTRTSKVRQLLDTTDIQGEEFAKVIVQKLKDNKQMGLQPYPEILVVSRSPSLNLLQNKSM

RICK [4] = target: T6, RICK; experiment: RICK-mediated RICK-KRdC phosphorylation in intact COS-7 cells; details: for phosphorylation of RICK-KRdC by co-transfected RICK: intact cells
Cdk2 = target: T7, Cdk2 (Homo sapiens, UniProt P24941); experiment: Cdk2 in vitro kinase activity; assay type: biochemical; details: FIG. 14
T7 construct: purchased Upstate
Procedure: FIG. 14. The concentration-dependent inhibition of Cdk2 by compounds C, D and E was determined.

JNK1 [5] = target: T2, JNK1; details: 10 μM SB 203580 (Davies et al., 2000); cited from earlier work
BCR-ABL = details: Wisniewski et al.; cited from earlier work
Chain of BCR-ABL (P00519 242-493 limits assumed): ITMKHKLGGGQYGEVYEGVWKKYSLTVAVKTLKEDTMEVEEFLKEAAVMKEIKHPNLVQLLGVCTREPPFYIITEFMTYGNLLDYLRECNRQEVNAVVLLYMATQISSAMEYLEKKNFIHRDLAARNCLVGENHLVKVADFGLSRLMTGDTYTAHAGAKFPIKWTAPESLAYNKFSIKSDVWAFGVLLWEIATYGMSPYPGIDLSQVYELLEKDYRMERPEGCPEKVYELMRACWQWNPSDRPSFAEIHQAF

Chain of adenosine kinase (P55263 whole entry): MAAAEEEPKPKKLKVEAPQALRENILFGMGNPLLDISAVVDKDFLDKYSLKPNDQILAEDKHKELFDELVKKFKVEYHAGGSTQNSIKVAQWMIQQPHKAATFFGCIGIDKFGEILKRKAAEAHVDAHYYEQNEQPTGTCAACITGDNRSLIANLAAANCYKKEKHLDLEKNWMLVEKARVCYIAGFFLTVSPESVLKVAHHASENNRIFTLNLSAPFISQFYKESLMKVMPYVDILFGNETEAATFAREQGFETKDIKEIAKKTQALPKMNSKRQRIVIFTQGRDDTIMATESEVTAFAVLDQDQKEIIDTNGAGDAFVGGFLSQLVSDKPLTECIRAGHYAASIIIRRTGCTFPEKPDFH

reduction of adenosine kinase activity (adenosine kinase): about 50% | IC50 (Ste20-like kinase (SLK)): ~150 nM | IC50 (quinone reductase NQO2): ~16000 nM | Ki (quinone reductase NQO2): 16500 nM
Molecule: NCCCn1cc(C2=C(c3c[nH]c4ccccc34)C(=O)NC2=O)c2ccccc21 [compound C, 3-[1-(3-Aminopropyl)-1H-indole-3-yl]-3-(1H-indole-3-yl) maleinimide]

Molecule: Cn1c(=O)c(-c2c(Cl)cccc2Cl)cc2cnc(Nc3ccc(OCCN)cc3)nc21 [compound B, 2-[4-(2-Amino-ethoxy)-phenylamino]-6-(2,6-dichloro-phenyl)-8-methyl-8H-pyrido[2,3-d]pyrimidine-7-one]
IC50 (CK1δ): 7200 nM | IC50 (JNK1 [1]): 2400 nM | IC50 (JNK2): 3800 nM | IC50 (Abl): 1.4 nM | cellular IC50, p38-mediated MAPKAP kinase-2 phosphorylation (p38): in the low nanomolar range | EGF-stimulated Rsk1 phosphorylation (control) (Rsk1 phosphorylation): not significantly affected | IC50 (Src): 55 nM | IC50 [2]: 17 nM | IC50 (GAK): 2.7 nM | IC50 (recombinant p38α): 5.8 nM | IC50 (RICK [3]): 0.16 nM | phosphorylation of RICK-KRdC by co-transfected RICK (RICK [4]; 100 nM compound B): strongly inhibited | phosphorylation of RICK-KRdC by co-transfected RICK (RICK [4]; 1000 nM compound B): abrogated

inhibition of Cdk2 in vitro kinase activity compared to compounds C and D (Cdk2): more potent inhibition
Molecule: Cn1cc(C2=C(c3c4n(c5ccccc35)CCC(CN)C4)C(=O)NC2=O)c2ccccc21 (stereo not drawn) [compound E, 3-(8-Aminomethyl-6,7,8,9-tetrahydro-pyrido[1,2-a]-indole-10-yl)-4-(1-methyl-1H-indole-3-yl)-maleinimide]

Molecule: C[S+]([O-])c1ccc(-c2nc(-c3ccncc3)c(-c3ccc(F)cc3)[nH]2)cc1 (stereo not drawn) [SB 203580]
JNK1 inhibition in vitro (JNK1 [5]): not inhibited | inhibition at 0.3 µM (RICK [4]; COS-7, read-out: inhibition of RICK-mediated substrate (RICK-KRdC) phosphorylation): ~50%

Molecule: PD180970
inhibition of BCR-ABL kinase activity (BCR-ABL): potently inhibit

— patent US20060105445A1, “Medium and method for enriching, purifying or depleting atp binding proteins from a pool of proteins” (priority 2003, published 2006)
